One assay addresses mPAD4 (Mus musculus, UniProt Q9Z183). As to the kind of experiment: mPAD4 RFMS PAD4 inhibition assay.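 On mPAD4 RFMS pIC50: grade E means pIC50 at most 4 and F means pIC50 4.0 to 5.0.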 To be noted: mPAD4, RFMS readout. The class given is biochemical. How it is done:
(§1) Compounds of the present invention were assayed as inhibitors of PAD4 using the assay protocol described below.
(§2) Compound stock solutions were stored at RT. […] Final assay conditions were as follows:
(§3) Total incubation time: 65 mins at 37° C.
(§4) Stop solution: 40 μl 5% TCA in ACN
(§5) The compound numbers correspond to the compound numbers in Table 1. […] The term pIC50=−log(IC50). […] “NA” stands for “not assayed.”

The target in the next assay is hPAD4 (Homo sapiens, UniProt Q9UM07). Put plainly: hPAD4 RFMS (RapidFire mass spectrometry) PAD4 inhibition assay.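 On hPAD4 RFMS pIC50: grade E means pIC50 at most 4 and F means pIC50 4.0 to 5.0.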 The class given is biochemical. To be noted: hPAD4 enzyme, RFMS readout. As to the method: as §1, §2, §3, §4, §5
hPAD4, sequence (Q9UM07 whole entry): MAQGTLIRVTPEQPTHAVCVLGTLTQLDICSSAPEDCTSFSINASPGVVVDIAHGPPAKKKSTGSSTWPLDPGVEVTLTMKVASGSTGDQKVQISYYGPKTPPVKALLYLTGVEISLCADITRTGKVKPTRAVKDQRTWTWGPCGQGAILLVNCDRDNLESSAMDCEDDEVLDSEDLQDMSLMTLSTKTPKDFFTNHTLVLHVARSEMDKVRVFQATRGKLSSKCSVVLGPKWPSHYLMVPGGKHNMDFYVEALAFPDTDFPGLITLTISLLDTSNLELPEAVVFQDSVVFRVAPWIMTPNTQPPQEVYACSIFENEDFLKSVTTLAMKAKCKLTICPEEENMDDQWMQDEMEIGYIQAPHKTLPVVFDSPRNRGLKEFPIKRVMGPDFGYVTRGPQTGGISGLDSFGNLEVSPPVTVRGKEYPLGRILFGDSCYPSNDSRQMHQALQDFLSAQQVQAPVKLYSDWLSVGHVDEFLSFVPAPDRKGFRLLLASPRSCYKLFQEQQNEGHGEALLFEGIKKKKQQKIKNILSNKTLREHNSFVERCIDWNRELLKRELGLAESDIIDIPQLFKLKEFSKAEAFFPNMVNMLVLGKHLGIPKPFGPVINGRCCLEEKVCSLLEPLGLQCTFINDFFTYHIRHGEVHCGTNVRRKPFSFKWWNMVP
Where [1] appears, read: pIC50=−log(IC50), read-out: mPAD4 RFMS pIC50 (converted).
[2] abbreviates: pIC50=−log(IC50), read-out: hPAD4 RFMS pIC50 (converted).

Each structure is given as a SMILES string. Where two headings read alike, the source gives them in different places. Bounds are passed on as bounds.

mPAD4, sequence (Q9Z183 whole entry): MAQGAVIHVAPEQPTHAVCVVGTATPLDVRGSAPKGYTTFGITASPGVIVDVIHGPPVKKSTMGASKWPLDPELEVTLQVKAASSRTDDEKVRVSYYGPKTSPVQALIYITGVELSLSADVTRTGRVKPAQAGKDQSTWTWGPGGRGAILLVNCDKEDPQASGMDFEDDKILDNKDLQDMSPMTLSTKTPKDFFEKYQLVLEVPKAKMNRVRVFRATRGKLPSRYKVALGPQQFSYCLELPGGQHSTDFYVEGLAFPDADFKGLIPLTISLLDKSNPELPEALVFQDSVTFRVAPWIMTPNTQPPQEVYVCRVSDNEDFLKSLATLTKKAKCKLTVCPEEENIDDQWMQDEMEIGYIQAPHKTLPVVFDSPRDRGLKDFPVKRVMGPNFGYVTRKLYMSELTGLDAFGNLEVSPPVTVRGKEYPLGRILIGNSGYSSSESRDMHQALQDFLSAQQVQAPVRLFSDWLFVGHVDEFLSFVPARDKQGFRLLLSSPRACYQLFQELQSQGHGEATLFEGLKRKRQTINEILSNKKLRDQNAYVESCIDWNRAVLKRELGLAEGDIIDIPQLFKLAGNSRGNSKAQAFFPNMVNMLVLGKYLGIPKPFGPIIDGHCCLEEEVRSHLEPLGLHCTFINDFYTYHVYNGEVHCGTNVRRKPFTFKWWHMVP

As for `COc1cc(C(=O)N2C[C@H]3CC[C@@H]2[C@@H]3N)cc2nc(-c3cc4cc(F)cnc4n3CC3CC3)n(C)c12` [Compound I-222], the IC50 at mPAD4 (setting [1]), at mPAD4 (read-out: mPAD4 RFMS IC50), at hPAD4 (setting [2]) and on hPAD4 (read-out: hPAD4 RFMS IC50) was less than 1000 nM throughout.

Consider `CO[C@]1(C)C[C@H](Cn2c(-c3cc4cccnc4n3CC3CC3)nc3cc(C(=O)N4C[C@H]5CC[C@@H]4[C@@H]5N)cc(F)c32)C1` [Compound I-223], for which the IC50 on mPAD4 (setting [1]), at mPAD4 (read-out: mPAD4 RFMS IC50), at hPAD4 (setting [2]) and at hPAD4 (read-out: hPAD4 RFMS IC50) was less than 1000 nM in each case.

Regarding `COc1cc(C(=O)N2C[C@H]3CC[C@@H]2[C@@H]3N)cc2nc(-c3cc4cccnc4n3CC3CC3)n([C@H]3C[C@H](F)C3)c12` [Compound I-224], the IC50 on mPAD4 (setting [1]), at mPAD4 (read-out: mPAD4 RFMS IC50), on hPAD4 (setting [2]) and at hPAD4 (read-out: hPAD4 RFMS IC50) was less than 1000 nM each time.

On to `COc1cc(C(=O)N2C[C@H]3CC[C@@H]2[C@@H]3N)cc2nc(-c3cc4cccnc4n3CC3CC3)n([C@H]3C[C@@H](F)C3)c12` [Compound I-225], for which the IC50 on mPAD4 (setting [1]), on mPAD4 (read-out: mPAD4 RFMS IC50), on hPAD4 (setting [2]) and on hPAD4 (read-out: hPAD4 RFMS IC50) was less than 1000 nM throughout.

Consider `COc1ccc2cc(-c3nc4cc(C(=O)N5C[C@H]6CC[C@@H]5[C@@H]6N)cc(F)c4n3C)n(CC3CC3)c2n1` [Compound I-230], for which the IC50 at mPAD4 (setting [1]), on mPAD4 (read-out: mPAD4 RFMS IC50), at hPAD4 (setting [2]) and on hPAD4 (read-out: hPAD4 RFMS IC50) was less than 1000 nM each time.

Turning to `COc1cc(C(=O)N2C[C@H]3CC[C@@H]2[C@@H]3N)cc2nc(-c3cc4cccnc4n3CC3CC3)n(C[C@H]3CCOC3)c12` [Compound I-231], the IC50 at mPAD4 (setting [1]), at mPAD4 (read-out: mPAD4 RFMS IC50), on hPAD4 (setting [2]) and on hPAD4 (read-out: hPAD4 RFMS IC50) was less than 1000 nM throughout.

For `COc1cc(C(=O)N2C[C@H]3CC[C@@H]2[C@@H]3N)cc2nc(-c3cc4cccnc4n3CC3CC3)n(C[C@@H]3CCOC3)c12` [Compound I-232], the IC50 on mPAD4 (setting [1]), on mPAD4 (read-out: mPAD4 RFMS IC50), on hPAD4 (setting [2]) and at hPAD4 (read-out: hPAD4 RFMS IC50) was less than 1000 nM each time.

As to `COc1cc(C(=O)N2C[C@H]3CC[C@@H]2[C@@H]3N)cc2nc(-c3cc4cccnc4n3CC3CC3)n(CC(F)F)c12` [Compound I-233], the IC50 at mPAD4 (setting [1]), on mPAD4 (read-out: mPAD4 RFMS IC50), on hPAD4 (setting [2]) and on hPAD4 (read-out: hPAD4 RFMS IC50) was less than 1000 nM throughout.

For the compound `COc1cc(C(=O)N2C[C@H]3CC[C@@H]2[C@@H]3N)cc2nc(-c3cc4cccnc4n3CC3CC3)n(CC(F)F)c12` [Compound I-234], the IC50 was 1000 to 10000 nM at mPAD4 (setting [1]), 1000 to 5000 nM on mPAD4 (read-out: mPAD4 RFMS IC50) and less than 1000 nM at hPAD4 (read-out: hPAD4 RFMS IC50). Also, the “hPAD4 RFMS pIC50” value on hPAD4 (pIC50=−log(IC50)) is reported as “H (pIC50 of ≥6)”.

In the case of `COc1cc(C(=O)N2C[C@H]3CC[C@@H]2[C@@H]3N)cc2nc(-c3cc4cccnc4n3CC3CC3)n(CCSC)c12` [Compound I-235], the IC50 at mPAD4 (setting [1]), at mPAD4 (read-out: mPAD4 RFMS IC50), at hPAD4 (setting [2]) and on hPAD4 (read-out: hPAD4 RFMS IC50) was less than 1000 nM in each case.

As to `COc1cc(C(=O)N2C[C@H]3CC[C@@H]2[C@@H]3N)cc2nc(-c3cc4cccnc4n3CC3CC3)n(C[C@H]3C[C@@H](OC)C3)c12` [Compound I-236], the IC50 on mPAD4 (setting [1]), at mPAD4 (read-out: mPAD4 RFMS IC50), at hPAD4 (setting [2]) and at hPAD4 (read-out: hPAD4 RFMS IC50) was less than 1000 nM throughout.

Turning to `CN[C@@H]1[C@@H]2CC[C@H]1N(C(=O)c1cc(OC)c3c(c1)nc(-c1cc4cccnc4n1CC1CC1)n3C)C2` [Compound I-237, (1R,4R,7R)-2-{2-[1-(Cyclopropylmethyl)-1H-pyrrolo[2,3-b]pyridin-2-yl]-7-methoxy-1-methyl-1H-1,3-benzodiazole-5-carbonyl}-N-methyl-2-azabicyclo[2.2.1]heptan-7-amine], the IC50 at mPAD4 (setting [1]) was 10000 to 100000 nM; on mPAD4 (read-out: mPAD4 RFMS IC50), greater than 10000 nM; at hPAD4 (setting [2]), 10000 to 100000 nM; on hPAD4 (read-out: hPAD4 RFMS IC50) it was greater than 10000 nM.

Regarding `[2H]C([2H])([2H])OC1(C)CC(Cn2c(-c3cc4cccnc4n3CC3CC3)nc3cc(C(=O)N4C[C@H]5CC[C@@H]4[C@@H]5N)cc(OC)c32)C1` (stereo partly drawn) [Compound I-238, (1R,4R,7R)-2-{2-[1-(cyclopropylmethyl)-1H-pyrrolo[2,3-b]pyridin-2-yl]-7-methoxy-1-{[3-(^2H3)methoxy-3-methylcyclobutyl]methyl}-1H-1,3-benzodiazole-5-carbonyl}-2-azabicyclo[2.2.1]heptan-7-amine], the IC50 on mPAD4 (setting [1]), at mPAD4 (read-out: mPAD4 RFMS IC50), on hPAD4 (setting [2]) and on hPAD4 (read-out: hPAD4 RFMS IC50) was less than 1000 nM in each case.

The values above are taken from patent US9963448B2, “Bicyclic inhibitors of PAD4” (Padlock Therapeutics, Inc., priority 2015, dated 2018).
